From PubChem BioAssay AID192 (DTP/NCI, 2004)
“And” between values parts separate entries of the source, which are not always exact repeats. Identical values can stand only once. Toxic doses and inconclusive results are not listed.

Test system: BDF1 mice, B16 melanoma ip, median survival T/C
Assay: NCI In Vivo Anticancer Drug Screen. Data for tumor model B16 Melanoma (intraperitoneal) in B6D2F1 (BDF1) mice
Conditions: endpoint: median survival time, higher = longer survival
How it was run: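 In this screen, activity was judged from survival or tumor size in treated versus vehicle-treated tumor-bearing mice, reported as T/C.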

[1] = dose: 12.5 mg/kg/injection, schedule: Q01DX009 (ip), vehicle: saline
[2] = dose: 25.0 mg/kg/injection, schedule: Q01DX009 (ip), vehicle: saline
[3] = dose: 25.0 mg/kg/injection, schedule: Q01DX009 (ip), vehicle: saline with Tween-80
[4] = dose: 50.0 mg/kg/injection, schedule: Q01DX009 (ip), vehicle: saline with Tween-80
[5] = dose: 100.0 mg/kg/injection, schedule: Q01DX009 (ip), vehicle: Klucel (hydroxypropylcellulose) (HPC)
[6] = dose: 200.0 mg/kg/injection, schedule: Q01DX009 (ip), vehicle: Klucel (hydroxypropylcellulose) (HPC)
[7] = dose: 400.0 mg/kg/injection, schedule: Q01DX009 (ip), vehicle: Klucel (hydroxypropylcellulose) (HPC)
[8] = dose: 1.56 mg/kg/injection, schedule: Q01DX009 (ip), vehicle: saline
[9] = dose: 3.12 mg/kg/injection, schedule: Q01DX009 (ip), vehicle: saline
[10] = dose: 6.25 mg/kg/injection, schedule: Q01DX009 (ip), vehicle: saline
[11] = dose: 50.0 mg/kg/injection, schedule: Q01DX009 (ip), vehicle: saline
[12] = dose: 100.0 mg/kg/injection, schedule: Q01DX009 (ip), vehicle: saline
[13] = dose: 200.0 mg/kg/injection, schedule: Q01DX009 (ip), vehicle: saline
[14] = dose: 400.0 mg/kg/injection, schedule: Q01DX009 (ip), vehicle: saline
[15] = dose: 6.25 mg/kg/injection, schedule: Q01DX009 (ip), vehicle: Klucel (hydroxypropylcellulose) (HPC)
[16] = dose: 12.5 mg/kg/injection, schedule: Q01DX009 (ip), vehicle: Klucel (hydroxypropylcellulose) (HPC)
[17] = dose: 25.0 mg/kg/injection, schedule: Q01DX009 (ip), vehicle: Klucel (hydroxypropylcellulose) (HPC)
[18] = dose: 50.0 mg/kg/injection, schedule: Q01DX009 (ip), vehicle: Klucel (hydroxypropylcellulose) (HPC)

In the case of OC(CCl)CN1CC[N+]2(CC1)CC[N+]1(CCN(CC(O)CCl)CC1)CC2 (stereo not given), the T/C (dose: 4.0 mg/kg/injection, schedule: Q03HX024 (ip), vehicle: water) is reported as 114 % of control, the T/C (dose: 8.0 mg/kg/injection, schedule: Q03HX016 (ip), vehicle: water) is reported as 114 % of control and the T/C (dose: 8.0 mg/kg/injection, schedule: Q03HX024 (ip), vehicle: water) is reported as 117 % of control. The T/C [1] was 116 % of control, the T/C (dose: 16.0 mg/kg/injection, schedule: Q01DX009 (ip), vehicle: water) was 114 % of control and the T/C (dose: 16.0 mg/kg/injection, schedule: Q03HX008 (ip), vehicle: water) was 113 % of control. The T/C (dose: 16.0 mg/kg/injection, schedule: Q03HX016 (ip), vehicle: water) was 121 % of control, the T/C (dose: 16.0 mg/kg/injection, schedule: Q03HX024 (ip), vehicle: water) was 121 % of control and the T/C [2] was 111 % of control. The T/C (dose: 32.0 mg/kg/injection, schedule: Q03HX008 (ip), vehicle: water) was 123 % of control, the T/C (dose: 44.0 mg/kg/injection, schedule: Q01DX009 (ip), vehicle: saline) was 116 % of control and the T/C (dose: 66.0 mg/kg/injection, schedule: Q01DX009 (ip), vehicle: water) was 151 % of control and 172 % of control. The T/C (dose: 100.0 mg/kg/injection, schedule: Q01DX009 (ip), vehicle: water) was 150 % of control.

CCC1(C)c2cc(C)c(C(C)=O)cc2C(C)(C)C1C (stereo not given) was tested, and the T/C [3] was 107 % of control and the T/C [4] was 99 % of control.

In the case of Cc1ccc(NS(=O)(=O)c2ccc(F)cc2)c(C)c1, the T/C [5] is reported as 106 % of control, the T/C [6] is reported as 110 % of control and the T/C [7] is reported as 93 % of control.

For CC(CN1CCN(CCOCCO)CC1)CN1c2ccccc2Sc2ccc(Cl)cc21 (stereo not given), the T/C (dose: 0.09 mg/kg/injection, schedule: Q01DX009 (ip), vehicle: saline) was 117 % of control, the T/C (dose: 0.19 mg/kg/injection, schedule: Q01DX009 (ip), vehicle: saline) was 98 % of control and the T/C (dose: 0.39 mg/kg/injection, schedule: Q01DX009 (ip), vehicle: saline) was 121 % of control. The T/C (dose: 0.78 mg/kg/injection, schedule: Q01DX009 (ip), vehicle: saline) was 104 % of control, the T/C [8] was 115 % of control and the T/C [9] was 100 % of control. The T/C [10] was 101 % of control.

With CCCNCCCN the T/C [1] was 102 % of control, the T/C [2] was 105 % of control and the T/C [11] was 89 % of control.

For O=C(O)CCc1cccnc1, the T/C [11] was 104 % of control, the T/C [12] was 107 % of control and the T/C [13] was 106 % of control. The T/C [14] was 107 % of control.

For Cc1cc[n+](CCc2ccccc2)cc1, the T/C (dose: 6.25 mg/kg/injection, schedule: Q01DX009 (ip), vehicle: saline with Tween-80) was 92 % of control, the T/C (dose: 12.5 mg/kg/injection, schedule: Q01DX009 (ip), vehicle: saline with Tween-80) was 88 % of control and the T/C [3] was 95 % of control. For the same compound, the T/C [4] was 88 % of control.

In the case of [I][Hg][CH2]C1OCCOC1[CH2][Hg][I] (stereo not given), the T/C [15] is reported as 100 % of control, the T/C [16] is reported as 101 % of control and the T/C [17] is reported as 106 % of control. The T/C [18] was 107 % of control, the T/C [5] was 105 % of control and the T/C [6] was 95 % of control.

In the case of C=C(C)[C@@]12O[C@@]3(/C=C/C=C/CCCCC)O[C@@H]1[C@@H]1[C@@H]4O[C@]4(COC(=O)CCCCCCCCCCCCCCC)[C@@H](O)[C@]4(O)C(=O)C(C)=CC4[C@@]1(O3)[C@H](C)[C@H]2OC(=O)c1ccccc1 (stereo not given in full), the T/C (dose: 0.5 micrograms/kg/injection, schedule: Q01DX009 (ip), vehicle: saline) is reported as 102 % of control, the T/C (dose: 1.0 micrograms/kg/injection, schedule: Q01DX009 (ip), vehicle: saline) is reported as 106 % of control and the T/C (dose: 1.9 micrograms/kg/injection, schedule: Q01DX009 (ip), vehicle: saline) is reported as 105 % of control. The T/C (dose: 3.8 micrograms/kg/injection, schedule: Q01DX009 (ip), vehicle: saline) was 99 % of control, the T/C (dose: 7.5 micrograms/kg/injection, schedule: Q01DX009 (ip), vehicle: saline) was 102 % of control and the T/C (dose: 15.0 micrograms/kg/injection, schedule: Q01DX009 (ip), vehicle: saline) was 103 % of control. The T/C (dose: 30.0 micrograms/kg/injection, schedule: Q01DX009 (ip), vehicle: saline) was 104 % of control.

In the case of O=C(Nc1ccc(F)cc1)Nc1cccc2ccccc12, the T/C [5] is reported as 97 % of control and the T/C [6] is reported as 94 % of control.

In the case of C[n+]1c(-c2cccc(OCCCCCCCOc3cccc(-c4c5cc(N)ccc5c5ccc(N)cc5[n+]4C)c3)c2)c2cc(N)ccc2c2ccc(N)cc21, the T/C (dose: 0.02 mg/kg/injection, schedule: Q01DX009 (ip), vehicle: water) is reported as 95 % of control and the T/C (dose: 0.04 mg/kg/injection, schedule: Q01DX009 (ip), vehicle: water) is reported as 123 % of control.

In the case of CCC1(CC)COC(=O)NC1=O, the T/C [8] is reported as 105 % of control, the T/C [9] is reported as 97 % of control and the T/C [10] is reported as 105 % of control. The T/C [1] was 107 % of control.

With Cc1cc2oc(C)[n+](Cc3ccccc3)c2cc1C the T/C [4] was 111 % of control and the T/C (dose: 100.0 mg/kg/injection, schedule: Q01DX009 (ip), vehicle: saline with Tween-80) was 98 % of control.

For COc1ccc2c(c1)C13CCCCC1C(C2)N(CC1(c2ccccc2)CC1)CC3 (stereo not given), the T/C (dose: 4.1 mg/kg/injection, schedule: Q01DX009 (ip), vehicle: Klucel (hydroxypropylcellulose) (HPC)) was 93 % of control, the T/C [15] was 93 % of control and the T/C (dose: 9.3 mg/kg/injection, schedule: Q01DX009 (ip), vehicle: Klucel (hydroxypropylcellulose) (HPC)) was 93 % of control and 109 % of control. The T/C [16] was 119 % of control, the T/C [17] was 121 % of control and the T/C [18] was 97 % of control.

In the case of COCCN1CCC(C)(CO)C1 (stereo not given), the T/C [12] is reported as 106 % of control, the T/C [13] is reported as 100 % of control and the T/C [14] is reported as 93 % of control.

For CCCCOCCC1CCNCC1, the T/C [1] was 116 % of control, the T/C [2] was 106 % of control and the T/C [11] was 110 % of control.

CN1C(=O)CN=C(c2ccccc2)c2cc(Cl)ccc21 was tested, and the T/C (dose: 0.02 mg/kg/injection, schedule: Q01DX009 (ip), vehicle: Klucel (hydroxypropylcellulose) (HPC)) was 95 % of control, the T/C (dose: 0.03 mg/kg/injection, schedule: Q01DX009 (ip), vehicle: saline) was 100 % of control and the T/C (dose: 0.04 mg/kg/injection, schedule: Q01DX009 (ip), vehicle: Klucel (hydroxypropylcellulose) (HPC)) was 233 % of control. The T/C (dose: 0.05 mg/kg/injection, schedule: Q01DX009 (ip), vehicle: saline) was 97 % of control, the T/C (dose: 0.09 mg/kg/injection, schedule: Q01DX009 (ip), vehicle: Klucel (hydroxypropylcellulose) (HPC)) was 104 % of control and the T/C (dose: 0.1 mg/kg/injection, schedule: Q01DX009 (ip), vehicle: saline) was 91 % of control. The T/C (dose: 0.19 mg/kg/injection, schedule: Q01DX009 (ip), vehicle: Klucel (hydroxypropylcellulose) (HPC)) was 109 % of control, the T/C (dose: 0.39 mg/kg/injection, schedule: Q01DX009 (ip), vehicle: Klucel (hydroxypropylcellulose) (HPC)) was 91 % of control and 105 % of control and the T/C (dose: 5.0 micrograms/kg/injection, schedule: Q01DX009 (ip), vehicle: Klucel (hydroxypropylcellulose) (HPC)) was 94 % of control. The T/C (dose: 10.0 micrograms/kg/injection, schedule: Q01DX009 (ip), vehicle: Klucel (hydroxypropylcellulose) (HPC)) was 93 % of control, the T/C (dose: 20.0 micrograms/kg/injection, schedule: Q01DX009 (ip), vehicle: Klucel (hydroxypropylcellulose) (HPC)) was 86 % of control and the T/C (dose: 40.0 micrograms/kg/injection, schedule: Q01DX009 (ip), vehicle: Klucel (hydroxypropylcellulose) (HPC)) was 94 % of control. The T/C (dose: 90.0 micrograms/kg/injection, schedule: Q01DX009 (ip), vehicle: Klucel (hydroxypropylcellulose) (HPC)) was 92 % of control.

With Cc1ccc(NC(=O)Nc2ccc(Cl)c(Cl)c2)c(C)c1 the T/C [17] was 109 % of control, the T/C [18] was 103 % of control and the T/C [5] was 92 % of control.

In the case of CC(C)OCCS(=O)(=O)Oc1ncc(Cl)cc1Cl, the T/C (dose: 100.0 mg/kg/injection, schedule: Q04DX003 (ip), vehicle: saline with Tween-80) is reported as 100 % of control and the T/C (dose: 200.0 mg/kg/injection, schedule: Q04DX003 (ip), vehicle: saline with Tween-80) is reported as 93 % of control.

For CC1=Nc2ccc([N+](=O)[O-])cc2N=C(C)C1, the T/C (dose: 37.5 mg/kg/injection, schedule: Q01DX009 (ip), vehicle: saline) was 97 % of control, the T/C (dose: 75.0 mg/kg/injection, schedule: Q01DX009 (ip), vehicle: saline) was 101 % of control and the T/C (dose: 150.0 mg/kg/injection, schedule: Q01DX009 (ip), vehicle: saline) was 89 % of control.

With CN(C)S(=O)(=O)Nc1cc(Cl)c(NS(=O)(=O)N(C)C)cc1Cl the T/C [5] was 92 % of control, the T/C [6] was 100 % of control and the T/C [7] was 89 % of control.
